Reference: PubChem BioAssay (NCI)
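96-well plates; 48 h exposure; 5 concentrations. Endpoints by linear interpolation between flanking doses. Not reached: highest tested concentration assigned. At the GI50, growth is halved. At the TGI there is no net growth.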

How the values were obtained:
Experiment in all cases: DTP human tumour cell line panel, 48 h
OVCAR-5 ovarian = tested on: OVCAR-5 ovarian
M14 melanoma = tested on: M14 melanoma
UACC-62 melanoma = tested on: UACC-62 melanoma
DU-145 prostate = tested on: DU-145 prostate
K-562 leukemia = tested on: K-562 leukemia
COLO 205 colon = tested on: COLO 205 colon
SK-MEL-28 melanoma = tested on: SK-MEL-28 melanoma
SW-620 colon = tested on: SW-620 colon
UACC-257 melanoma = tested on: UACC-257 melanoma
NCI-H23 lung = tested on: NCI-H23 lung
PC-3 prostate = tested on: PC-3 prostate
UO-31 renal = tested on: UO-31 renal
HCC-2998 colon = tested on: HCC-2998 colon
SF-295 CNS = tested on: SF-295 CNS
OVCAR-3 ovarian = tested on: OVCAR-3 ovarian
TK-10 renal = tested on: TK-10 renal
ACHN renal = tested on: ACHN renal
SNB-75 CNS = tested on: SNB-75 CNS
U251 CNS = tested on: U251 CNS
MALME-3M melanoma = tested on: MALME-3M melanoma
RPMI-8226 leukemia = tested on: RPMI-8226 leukemia
KM12 colon = tested on: KM12 colon
HOP-62 NSCLC = tested on: HOP-62 NSCLC
SF-539 CNS = tested on: SF-539 CNS
MCF7 breast = tested on: MCF7 breast
LOX IMVI melanoma = tested on: LOX IMVI melanoma
HT29 colon = tested on: HT29 colon
HCT-15 colon = tested on: HCT-15 colon
SK-MEL-2 melanoma = tested on: SK-MEL-2 melanoma
MDA-N = tested on: MDA-N
HOP-92 NSCLC = tested on: HOP-92 NSCLC
IGROV1 ovarian = tested on: IGROV1 ovarian
EKVX NSCLC = tested on: EKVX NSCLC
NCI/ADR-RES ovarian = tested on: NCI/ADR-RES ovarian
BT-549 breast = tested on: BT-549 breast
T-47D breast = tested on: T-47D breast
MDA-MB-435 = tested on: MDA-MB-435
HS 578T breast = tested on: HS 578T breast
SR leukemia = tested on: SR leukemia
A549 NSCLC = tested on: A549 NSCLC
RXF 393 renal = tested on: RXF 393 renal
SN12C renal = tested on: SN12C renal
OVCAR-8 ovarian = tested on: OVCAR-8 ovarian
CCRF-CEM leukemia = tested on: CCRF-CEM leukemia
HL-60(TB) leukemia = tested on: HL-60(TB) leukemia
SF-268 CNS = tested on: SF-268 CNS
CAKI-1 renal = tested on: CAKI-1 renal
NCI-H226 lung = tested on: NCI-H226 lung
MDA-MB-231 breast = tested on: MDA-MB-231 breast
OVCAR-4 ovarian = tested on: OVCAR-4 ovarian
HCT-116 colon = tested on: HCT-116 colon
SK-MEL-5 melanoma = tested on: SK-MEL-5 melanoma
SK-OV-3 ovarian = tested on: SK-OV-3 ovarian
NCI-H522 lung = tested on: NCI-H522 lung
786-0 renal = tested on: 786-0 renal
NCI-H460 lung = tested on: NCI-H460 lung
MOLT-4 leukemia = tested on: MOLT-4 leukemia
A498 renal = tested on: A498 renal

COC[C@H]1C(=O)NCC(=O)N2N=CCC[C@H]2C(=O)N(O)[C@H](C)C(=O)O[C@@H](C(C)C)[C@H](NC(=O)[C@@](C)(O)[C@]2(O)CC[C@@H](CC(C)C)[C@H](C)O2)C(=O)N2NCCC[C@@H]2C(=O)N1O
TGI (OVCAR-5 ovarian): 0.0341 µM
TGI (M14 melanoma): 0.0355 µM
TGI (UACC-62 melanoma): 0.0322 µM
TGI (DU-145 prostate): 0.168 µM
TGI (K-562 leukemia): > 100 µM
TGI (COLO 205 colon): 0.0319 µM
TGI (SK-MEL-28 melanoma): 0.0315 µM
TGI (SW-620 colon): 0.03 µM
TGI (UACC-257 melanoma): 0.0328 µM
TGI (NCI-H23 lung): 0.0312 µM
TGI (PC-3 prostate): 0.0318 µM
TGI (UO-31 renal): 0.341 µM
TGI (HCC-2998 colon): 0.0279 µM
TGI (SF-295 CNS): 0.0311 µM
TGI (OVCAR-3 ovarian): 0.0362 µM
TGI (TK-10 renal): 0.0322 µM
TGI (ACHN renal): 0.147 µM
TGI (SNB-75 CNS): < 0.0159 µM
TGI (U251 CNS): 0.03 µM
TGI (MALME-3M melanoma): 0.0307 µM
TGI (RPMI-8226 leukemia): > 100 µM
TGI (KM12 colon): 0.0276 µM
TGI (HOP-62 NSCLC): 0.0322 µM
TGI (SF-539 CNS): 0.0297 µM
TGI (MCF7 breast): 0.0297 µM
TGI (LOX IMVI melanoma): 0.0316 µM
TGI (HT29 colon): 0.0307 µM
TGI (HCT-15 colon): 0.253 µM
TGI (SK-MEL-2 melanoma): 0.0276 µM
TGI (MDA-N): 0.0323 µM
TGI (HOP-92 NSCLC): 0.0334 µM

Oc1c(O)c(Cl)c(Cl)c(Cl)c1Cl
GI50 (OVCAR-5 ovarian): 9.62 µM
TGI (OVCAR-5 ovarian): 42.5 µM
GI50 (IGROV1 ovarian): 3.06 µM
TGI (IGROV1 ovarian): 10.4 µM
GI50 (EKVX NSCLC): 2.95 µM
TGI (EKVX NSCLC): 18.9 µM
GI50 (M14 melanoma): 3.51 µM
TGI (M14 melanoma): 15.4 µM
GI50 (NCI/ADR-RES ovarian): 3.01 µM
TGI (NCI/ADR-RES ovarian): 10.3 µM
GI50 (BT-549 breast): 4.51 µM
TGI (BT-549 breast): 31.5 µM
GI50 (UACC-62 melanoma): 2.95 µM
TGI (UACC-62 melanoma): 10.2 µM
GI50 (DU-145 prostate): 7.1 µM
TGI (DU-145 prostate): > 100 µM
GI50 (K-562 leukemia): 3.49 µM
TGI (K-562 leukemia): > 100 µM
GI50 (COLO 205 colon): 12.5 µM
TGI (COLO 205 colon): 33.7 µM
GI50 (T-47D breast): 3.26 µM
TGI (T-47D breast): 11.3 µM
GI50 (MDA-MB-435): 3.42 µM
TGI (MDA-MB-435): 18.1 µM
GI50 (HS 578T breast): 3.75 µM
TGI (HS 578T breast): 23 µM
GI50 (SK-MEL-28 melanoma): 4.99 µM
TGI (SK-MEL-28 melanoma): 37.2 µM
GI50 (SR leukemia): 2.73 µM
TGI (SR leukemia): > 100 µM
GI50 (SW-620 colon): 3.17 µM
TGI (SW-620 colon): 30.3 µM
GI50 (UACC-257 melanoma): 2.92 µM
TGI (UACC-257 melanoma): 9.6 µM
GI50 (A549 NSCLC): 4.2 µM
TGI (A549 NSCLC): 24.1 µM
GI50 (NCI-H23 lung): 3.04 µM
TGI (NCI-H23 lung): 9.28 µM
GI50 (PC-3 prostate): 3.43 µM
TGI (PC-3 prostate): 18.1 µM
GI50 (RXF 393 renal): 1.61 µM
TGI (RXF 393 renal): 13.9 µM
GI50 (UO-31 renal): 2.74 µM
TGI (UO-31 renal): 13.1 µM
GI50 (HCC-2998 colon): 16.3 µM
TGI (HCC-2998 colon): 30.7 µM
GI50 (SN12C renal): 3.79 µM
TGI (SN12C renal): 50 µM
GI50 (OVCAR-8 ovarian): 2.89 µM
TGI (OVCAR-8 ovarian): 13.9 µM
GI50 (SF-295 CNS): 3.23 µM
TGI (SF-295 CNS): 12.7 µM
GI50 (CCRF-CEM leukemia): 2.73 µM
TGI (CCRF-CEM leukemia): 27.7 µM
GI50 (OVCAR-3 ovarian): 2.44 µM
TGI (OVCAR-3 ovarian): 14.4 µM
GI50 (TK-10 renal): 9.42 µM
TGI (TK-10 renal): 47.7 µM
GI50 (HL-60(TB) leukemia): 1.85 µM
TGI (HL-60(TB) leukemia): 7.21 µM
GI50 (SF-268 CNS): 3.09 µM
TGI (SF-268 CNS): > 100 µM
GI50 (ACHN renal): 5.15 µM
TGI (ACHN renal): 35.5 µM
GI50 (CAKI-1 renal): 6.33 µM
TGI (CAKI-1 renal): 23 µM
GI50 (SNB-75 CNS): 2.52 µM
TGI (SNB-75 CNS): 21 µM
GI50 (U251 CNS): 4.21 µM
TGI (U251 CNS): 86.2 µM
GI50 (MALME-3M melanoma): 2.83 µM
TGI (MALME-3M melanoma): 13.4 µM
GI50 (RPMI-8226 leukemia): 2.23 µM
TGI (RPMI-8226 leukemia): 7.38 µM
GI50 (KM12 colon): 3.96 µM
TGI (KM12 colon): 19.7 µM
GI50 (HOP-62 NSCLC): 4.54 µM
TGI (HOP-62 NSCLC): 17.3 µM
GI50 (NCI-H226 lung): 4.62 µM
TGI (NCI-H226 lung): 24.3 µM
GI50 (MDA-MB-231 breast): 5.1 µM
TGI (MDA-MB-231 breast): 38.5 µM
GI50 (OVCAR-4 ovarian): 2.44 µM
TGI (OVCAR-4 ovarian): 8.86 µM
GI50 (HCT-116 colon): 2.88 µM
TGI (HCT-116 colon): 8.75 µM
GI50 (SK-MEL-5 melanoma): 3.37 µM
TGI (SK-MEL-5 melanoma): 13.4 µM
GI50 (SF-539 CNS): 3.72 µM
TGI (SF-539 CNS): 14.7 µM
GI50 (SK-OV-3 ovarian): 16 µM
TGI (SK-OV-3 ovarian): 44.5 µM
GI50 (NCI-H522 lung): 1.65 µM
TGI (NCI-H522 lung): 4.54 µM
GI50 (MCF7 breast): 3.25 µM
TGI (MCF7 breast): 16.2 µM
GI50 (786-0 renal): 7.98 µM
TGI (786-0 renal): 33 µM
GI50 (LOX IMVI melanoma): 3.65 µM
TGI (LOX IMVI melanoma): 20.3 µM
GI50 (HT29 colon): 4.89 µM
TGI (HT29 colon): 22.4 µM
GI50 (HCT-15 colon): 3.56 µM
TGI (HCT-15 colon): 19.4 µM
GI50 (SK-MEL-2 melanoma): 4.1 µM
TGI (SK-MEL-2 melanoma): 15.2 µM
GI50 (NCI-H460 lung): 2.62 µM
TGI (NCI-H460 lung): 13.3 µM
GI50 (MOLT-4 leukemia): 3.51 µM
TGI (MOLT-4 leukemia): 69.7 µM
GI50 (A498 renal): 2.67 µM
TGI (A498 renal): 8.92 µM
GI50 (HOP-92 NSCLC): 2.11 µM
TGI (HOP-92 NSCLC): 7.37 µM
